Test results taken from PubChem BioAssay AID1745844 (Carcinogenic Potency Database (CPDB), 2022).
The source made the active and inactive calls. No rule for the calls is given here.

Tested on: rodent lifetime carcinogenesis bioassay, tumor incidence TD50
Assay: chronic cancer bioassays in animals – CPDB, compiled studies (AID 1745844)

`[Cl][Cd][Cl]` was tested, and the carcinogen call (hamster, strain Syrian Golden, females, inhaled, site: lung, lesion: one or several types, types not named, dosed 60 weeks, study length 76 weeks) was “negative (inactive)”, the carcinogen call (hamster, strain Syrian Golden, females, inhaled, site: lung, lesion: one or several types, types not named, dosed 64 weeks, study length 76 weeks) was “negative (inactive)” and the carcinogen call (hamster, strain Syrian Golden, males, inhaled, site: lung, lesion: one or several types, types not named, dosed 60 weeks, study length 102 weeks) was “negative (inactive)”. For the same compound, the carcinogen call (hamster, strain Syrian Golden, males, inhaled, site: lung, lesion: one or several types, types not named, dosed 64 weeks, study length 113 weeks) was “negative (inactive)”, the carcinogen call (mouse, strain NMRI, females, inhaled, site: lung, lesion: adenocarcinoma, dosed 42 weeks, study length 82 weeks) was “negative (inactive)” and the carcinogen call (mouse, strain NMRI, females, inhaled, site: lung, lesion: adenocarcinoma, dosed 69 weeks, study length 89 weeks) was “negative (inactive)”. For the same compound, the carcinogen call (mouse, strain NMRI, females, inhaled, site: lung, lesion: adenoma, dosed 42 weeks, study length 82 weeks) was “negative (inactive)”, the carcinogen call (mouse, strain NMRI, females, inhaled, site: lung, lesion: adenoma, dosed 69 weeks, study length 89 weeks) was “negative (inactive)” and the carcinogen call (mouse, strain NMRI, females, inhaled, site: lung, lesion: several types, types named in the paper, dosed 42 weeks, study length 82 weeks) was “negative (inactive)”. The carcinogen call (mouse, strain NMRI, females, inhaled, site: lung, lesion: several types, types named in the paper, dosed 69 weeks, study length 89 weeks) was “negative (inactive)”, the carcinogen call (rat, strain BOR:WISW (Wistar), females, in feed, site: kidney, lesion: one or several types, types not named, dosed 72 weeks, study length 72 weeks) was “negative (inactive)” and the carcinogen call (rat, strain BOR:WISW (Wistar), males, in feed, site: kidney, lesion: one or several types, types not named, dosed 72 weeks, study length 72 weeks) was “negative (inactive)”. The TD50 (rat, strain NBL/Cr, males, in drinking water, site: adrenal gland, lesion: pheochromocytoma, benign/malignant, dosed 102 weeks, study length 102 weeks) was 686 mg/kg/day, the TD50 (rat, strain NBL/Cr, males, in drinking water, site: kidney/pelvis, lesion: transitional-cell carcinoma, dosed 102 weeks, study length 102 weeks) was 584 mg/kg/day and the TD50 (rat, strain NBL/Cr, males, in drinking water, site: kidney, lesion: lipoma, dosed 102 weeks, study length 102 weeks) was 584 mg/kg/day. For the same compound, the TD50 (rat, strain NBL/Cr, males, in drinking water, site: kidney, lesion: malignant mesenchymal tumor, dosed 102 weeks, study length 102 weeks) was 193 mg/kg/day, the TD50 (rat, strain NBL/Cr, males, in drinking water, site: kidney, lesion: several types, types named in the paper, dosed 102 weeks, study length 102 weeks) was 114 mg/kg/day and the TD50 (rat, strain Wistar W.74, females, in feed, site: any site (literature study), lesion: benign tumor, dosed 104 weeks, study length 105 weeks) was 44 mg/kg/day (inactive). For the same compound, the TD50 (rat, strain Wistar W.74, females, in feed, site: any site (literature study), lesion: malignant tumor, dosed 104 weeks, study length 105 weeks) was 124 mg/kg/day (inactive), the TD50 (rat, strain Wistar W.74, females, in feed, site: any site (literature study), lesion: several types, types named in the paper, dosed 104 weeks, study length 105 weeks) was 21.6 mg/kg/day (inactive) and the carcinogen call (rat, strain Wistar W.74, females, in feed, site: liver, lesion: hepatoma, dosed 104 weeks, study length 105 weeks) was “negative (inactive)”. For the same compound, the TD50 (rat, strain Wistar W.74, males, in feed, site: adrenal gland, lesion: pheochromocytoma, dosed 104 weeks, study length 105 weeks) was 1.33 mg/kg/day (inactive), the carcinogen call (rat, strain Wistar W.74, males, in feed, site: any site (literature study), lesion: benign tumor, dosed 104 weeks, study length 105 weeks) was “negative (inactive)” and the TD50 (rat, strain Wistar W.74, males, in feed, site: any site (literature study), lesion: malignant tumor, dosed 104 weeks, study length 105 weeks) was 47.4 mg/kg/day (inactive). For the same compound, the carcinogen call (rat, strain Wistar W.74, males, in feed, site: any site (literature study), lesion: several types, types named in the paper, dosed 104 weeks, study length 105 weeks) was “negative (inactive)”, the carcinogen call (rat, strain Wistar W.74, males, in feed, site: liver, lesion: hepatoma, dosed 104 weeks, study length 105 weeks) was “negative (inactive)” and the TD50 (rat, strain Wistar, females, inhaled, site: lung, lesion: adenocarcinoma, dosed 26 weeks, study length 126 weeks) was 0.206 mg/kg/day. For the same compound, the TD50 (rat, strain Wistar, females, inhaled, site: lung, lesion: adenocarcinoma, dosed 78 weeks, study length 134 weeks) was 0.0253 mg/kg/day, the TD50 (rat, strain Wistar, females, inhaled, site: lung, lesion: adenosquamous carcinoma, dosed 78 weeks, study length 134 weeks) was 0.106 mg/kg/day and the TD50 (rat, strain Wistar, females, inhaled, site: lung, lesion: alveolar/bronchiolar adenoma, dosed 78 weeks, study length 134 weeks) was 0.0495 mg/kg/day. It also gave a TD50 (rat, strain Wistar, females, inhaled, site: lung, lesion: several types, types named in the paper, dosed 26 weeks, study length 126 weeks) of 0.0645 mg/kg/day, a TD50 (rat, strain Wistar, females, inhaled, site: lung, lesion: several types, types named in the paper, dosed 78 weeks, study length 134 weeks) of 0.00971 mg/kg/day and a TD50 (rat, strain Wistar, females, inhaled, site: lung, lesion: squamous-cell tumor, dosed 26 weeks, study length 126 weeks) of 0.0998 mg/kg/day. The carcinogen call (rat, strain Wistar, males, in feed, site: all sites, lesion: lymphocytic leukemia, dosed 77 weeks, study length 77 weeks) was “positive”, the TD50 (rat, strain Wistar, males, in feed, site: prostate, lesion: adenoma, dosed 77 weeks, study length 77 weeks) was 56.9 mg/kg/day and the TD50 (rat, strain Wistar, males, in feed, site: testis, lesion: interstitial-cell tumor, benign, dosed 77 weeks, study length 77 weeks) was 31.6 mg/kg/day. The TD50 (rat, strain Wistar, males, inhaled, site: adrenal gland, lesion: pheochromocytoma, benign/malignant, dosed 78 weeks, study length 134 weeks) was 0.591 mg/kg/day, the TD50 (rat, strain Wistar, males, inhaled, site: lung, lesion: adenocarcinoma, dosed 26 weeks, study length 130 weeks) was 0.0294 mg/kg/day and the TD50 (rat, strain Wistar, males, inhaled, site: lung, lesion: adenocarcinoma, dosed 78 weeks, study length 130 weeks) was 0.00924 mg/kg/day. The TD50 (rat, strain Wistar, males, inhaled, site: lung, lesion: adenocarcinoma, dosed 78 weeks, study length 134 weeks) was 0.022 mg/kg/day, the TD50 (rat, strain Wistar, males, inhaled, site: lung, lesion: adenoma, dosed 78 weeks, study length 134 weeks) was 0.563 mg/kg/day and the TD50 (rat, strain Wistar, males, inhaled, site: lung, lesion: adenosquamous carcinoma, dosed 78 weeks, study length 130 weeks) was 0.165 mg/kg/day. The TD50 (rat, strain Wistar, males, inhaled, site: lung, lesion: alveolar/bronchiolar adenoma, dosed 26 weeks, study length 130 weeks) was 0.0521 mg/kg/day, the TD50 (rat, strain Wistar, males, inhaled, site: lung, lesion: alveolar/bronchiolar adenoma, dosed 78 weeks, study length 130 weeks) was 0.0804 mg/kg/day and the TD50 (rat, strain Wistar, males, inhaled, site: lung, lesion: carcinoma, dosed 78 weeks, study length 134 weeks) was 0.0127 mg/kg/day. For the same compound, the TD50 (rat, strain Wistar, males, inhaled, site: lung, lesion: epidermoid carcinoma, dosed 78 weeks, study length 134 weeks) was 0.0588 mg/kg/day, the TD50 (rat, strain Wistar, males, inhaled, site: lung, lesion: muco-epidermoid carcinoma, dosed 78 weeks, study length 134 weeks) was 0.315 mg/kg/day and the TD50 (rat, strain Wistar, males, inhaled, site: lung, lesion: several types, types named in the paper, dosed 26 weeks, study length 130 weeks) was 0.0106 mg/kg/day. It also gave a TD50 (rat, strain Wistar, males, inhaled, site: lung, lesion: several types, types named in the paper, dosed 78 weeks, study length 130 weeks) of 0.00611 mg/kg/day and a TD50 (rat, strain Wistar, males, inhaled, site: lung, lesion: squamous-cell tumor, dosed 26 weeks, study length 130 weeks) of 0.0521 mg/kg/day.
